Key:
Format in all cases: in vivo
[1] = system: Diamond Back Moth (Plutella xylostella); test: Diamond back moth, cabbage leaf dip test; details: foliar, 72 h
Experimental: B.1 Diamond Back Moth (Plutella xylostella)
The active compound was dissolved at the desired concentration in a mixture of 1:1 (vol:vol) distilled water:aceteone. Surfactant (Kinetic HV) was added at a rate of 0.01% (vol/vol). The test solution was prepared at the day of use.
Leaves of cabbage were dipped in test solution and air-dried. Treated leaves were placed in petri dishes lined with moist filter paper and inoculated with ten 3rd instar larvae. Mortality was recorded 72 hours after treatment.

[2] = system: Green Peach Aphid (Myzus persicae); test: Green peach aphid, systemic test on artificial diet in microtiter plates; details: 72 h
Source text: B.2 Green Peach Aphid (Myzus persicae)
For evaluating control of green peach aphid (Myzus persicae) through systemic means the test unit consisted of 96-well-microtiter plates containing liquid artificial diet under an artificial mem brane.
The compounds were formulated using a solution containing 75% v/v water and 25% v/v DMSO. Different concentrations of formulated compounds were pipetted into the aphid diet, using a custom built pipetter, at two replications.
After application, 5-8 adult aphids were placed on the artificial membrane inside the microtiter plate wells. The aphids were then allowed to suck on the treated aphid diet and incubated at about 23±1° C. and about 50±5% relative humidity for 3 days. Aphid mortality and fecundity was then visually assessed.

[3] = system: Vetch Aphid (Megoura viciae); test: Vetch aphid, broad bean leaf disk test; details: foliar, 120 h
Experimental: B.3 Vetch Aphid (Megoura viciae)
For evaluating control of vetch aphid (Megoura viciae) through contact or systemic means the test unit consisted of 24-well-microtiter plates containing broad bean leaf disks.
The compounds were formulated using a solution containing 75% v/v water and 25% v/v DMSO. Different concentrations of formulated compounds were sprayed onto the leaf disks at 2.5 μl, using a custom built micro atomizer, at two replications.
After application, the leaf disks were air-dried and 5-8 adult aphids placed on the leaf disks inside the microtiter plate wells. The aphids were then allowed to suck on the treated leaf disks and incubated at about 23±1° C. and about 50±5% relative humidity for 5 days. Aphid mortality and fecundity was then visually assessed.

[4] = system: Tobacco Budworm (Heliothis virescens); test: Tobacco budworm, insect diet microtiter plate test; details: 120 h
Experimental: B.4 Tobacco Budworm (Heliothis virescens)
For evaluating control of tobacco budworm (HeliothiS virescens) the test unit consisted of 96-well-microtiter plates containing an insect diet and 15-25 H. virescens eggs.
The compounds were formulated using a solution containing 75% v/v water and 25% v/v DMSO. Different concentrations of formulated compounds were sprayed onto the insect diet at 10 μl, using a custom built micro atomizer, at two replications.
(§1) After application, microtiter plates were incubated at about 28±1° C. and about 80±5% relative humidity for 5 days. Egg and larval mortality was then visually assessed.

[5] = system: Boll Weevil (Anthonomus grandis); test: Boll weevil, insect diet microtiter plate test; details: 120 h
Experimental: B.5 Boll Weevil (Anthonomus grandis)
For evaluating control of boll weevil (Anthonomus grandis) the test unit consisted of 96-well-microtiter plates containing an insect diet and 5-10 A. grandis eggs.
The compounds were formulated using a solution containing 75% v/v water and 25% v/v DMSO. Different concentrations of formulated compounds were sprayed onto the insect diet at 5 μl, using a custom built micro atomizer, at two replications.
After application, microtiter plates were incubated at about 25±1° C. and about 75±5% relative humidity for 5 days. Egg and larval mortality was then visually assessed.

[6] = system: Mediterranean Fruitfly (Ceratitis capitata); test: Mediterranean fruitfly, insect diet microtiter plate test; details: 120 h
Experimental: B.6 Mediterranean Fruitfly (Ceratitis capitata)
For evaluating control of Mediterranean fruitfly (CeratitiS capitata) the test unit consisted of microtiter plates containing an insect diet and 50-80 C. capitata eggs. The compounds were formulated using a solution containing 75% v/v water and 25% v/v DMSO. Different concentrations of formulated compounds were sprayed onto the insect diet at 5 μl, using a custom built micro atomizer, at two replications.
as §1

[7] = system: Orchid Thrips (dichromothrips corbetti); test: Orchid thrips, floral-immersion technique; details: Thrips, 72 h
Experimental: B.7 Orchid Thrips (dichromothrips corbetti)
Dichromothrips corbetti adults used for bioassay were obtained from a colony maintained continuously under laboratory conditions. For testing purposes, the test compound is diluted in a 1:1 mixture of acetone:water (vol:vol), plus Kinetic HV at a rate of 0.01% v/v.
Thrips potency of each compound was evaluated by using a floral-immersion technique. All petals of individual, intact orchid flowers were dipped into treatment solution and allowed to dry in Petri dishes. Treated petals were placed into individual re-sealable plastic along with about 20 adult thrips. All test arenas were held under continuous light and a temperature of about 28° C. for duration of the assay. After 3 days, the numbers of live thrips were counted on each petal. The percent mortality was recorded 72 hours after treatment.

[8] = system: Rice Green Leafhopper (Nephotettix virescens); test: Rice green leafhopper, sprayed rice seedlings; details: 72 h
Experimental: B.8 Rice Green Leafhopper (Nephotettix virescens)
Rice seedlings were cleaned and washed 24 hours before spraying. The active compounds were formulated in 1:1 acetone:water (vol:vol), and 0.01% vol/vol surfactant (Kinetic HV) was added. Potted rice seedlings were sprayed with 5-6 ml test solution, air dried, covered with Mylar cages cages and inoculated with 10 adults. Treated rice plants were kept at about 28-29° C. and relative humidity of about 50-60%. Percent mortality was recorded after 72 hours.

[9] = system: Red Spider Mite (Tetranychus kanzawai); test: Red spider mite, sprayed cowpea beans; details: 72 h
Experimental: B.9 Red Spider Mite (Tetranychus kanzawai)
The active compound was dissolved at the desired concentration in a mixture of 1:1 (vol:vol) distilled water:acetone. Add surfactant (Kinetic HV) was added at a rate of 0.01% (vol/vol). The test solution was prepared at the day of use.
Potted cowpea beans of 4-5 days of age were cleaned with tap water and sprayed with 1-2 ml of the test solution using air driven hand atomizer. The treated plants were allowed to air dry and afterwards inoculated with 30 or more mites by clipping a cassava leaf section from rearing population. Treated plants were placed inside a holding room at about 25-27° C. and about 50-60% relative humidity. Percent mortality was assessed 72 hours after treatment.

[10] = system: Southern Armyworm (Spodoptera eridania); test: Southern armyworm, sprayed lima bean plants; details: 96 h
Experimental: B.10 Southern Armyworm (Spodoptera eridania)
The active compounds were formulated in cyclohexanone as a 10,000 ppm solution supplied in tubes. The tubes were inserted into an automated electrostatic sprayer equipped with an atomizing nozzle and they served as stock solutions for which lower dilutions were made in 50% acetone:50% water (v/v). A nonionic surfactant (Kinetic®) was included in the solution at a volume of 0.01% (v/v).
Lima bean plants (variety Sieva) were grown 2 plants to a pot and selected for treatment at the 1st true leaf stage. Test solutions were sprayed onto the foliage by an automated electrostatic plant sprayer equipped with an atomizing spray nozzle. The plants were dried in the sprayer fume hood and then removed from the sprayer. Each pot was placed into perforated plastic bags with a zip closure. About 10 to 11 armyworm larvae were placed into the bag and the bags zipped closed. Test plants were maintained in a growth room at about 25° C. and about 20-40% relative humidity for 4 days, avoiding direct exposure to fluorescent light (24 hour photoperiod) to prevent trapping of heat inside the bags. Mortality and reduced feeding were assessed 4 days after treatment, compared to untreated control plants.

[11] = system: Green Soldier Stink Bug (Nezara viridula); test: Green soldier stink bug, sprayed soybean pods in Petri dishes; details: 120 h
Experimental: B.11 Green Soldier Stink Bug (Nezara viridula)
The active compound was dissolved at the desired concentration in a mixture of 1:1 (vol:vol) distilled water:acetone. Surfactant (Kinetic HV) was added at a rate of 0.01% (vol/vol). The test solution was prepared at the day of use.
Soybean pods were placed in glass Petri dishes lined with moist filter paper and inoculated with ten late 3rd instar N. viridula. Using a hand atomizer, approximately 2 ml solution is sprayed into each Petri dish. Assay arenas were kept at about 25° C. Percent mortality was recorded after 5 days.

[12] = system: Neotropical Brown Stink Bug (Euschistus heros); test: Neotropical brown stink bug, sprayed soybean pods in cups; details: 120 h
Experimental: B.12 Neotropical Brown Stink Bug (Euschistus heros)
(§2) The active compound was dissolved at the desired concentration in a mixture of 1:1 (vol:vol) distilled water: acetone. Surfactant (Kinetic HV) was added at a rate of 0.01% (vol/vol). The test solution was prepared at the day of use.
Soybean pods were placed in microwavable plastic cups and inoculated with ten adult stage E. heros. Using a hand atomizer, approximately 1 ml solution is sprayed into each cup, insects and food present. A water source was provided (cotton wick with water). Each treatment was replicated 2-fold. Assay arenas were kept at about 25° C. Percent mortality was recorded after 5 days.

[13] = system: Brown Marmorated Stink Bug (Halyomorpha halys); test: Brown marmorated stink bug, sprayed peanuts and soybean seeds in cups; details: 120 h
Experimental: B.13 Brown Marmorated Stink Bug (Halyomorpha halys)
as §2
Row peanuts and soybean seeds were placed into microwavable plastic cups and inoculated with five adult stage H. halys. Using a hand atomizer, approximately 1 ml solution is sprayed into each cup, insects and food present. A water source was provided (cotton wick with water). Each treatment is replicated 4-fold. Assay arenas are kept at about 25° C. Percent mortality was recorded after 5 days.

O=C(NCc1ccccn1)c1ccc(C2=NOC(c3cc(Cl)cc(Cl)c3)(C(F)(F)F)C2)c2c1CCC2 (stereo not shown) [Compound 1-27, 7-[5-(3,5-dichlorophenyl)-5-(trifluoromethyl)-4H-isoxazol-3-yl]-N-(2-pyridylmethyl)indane-4-carboxamide]
≥ 75%: mortality at 300 ppm [1] | mortality at 2500 ppm [2] | mortality at 2500 ppm [3] | mortality at 2500 ppm [4] | mortality at 2500 ppm [5] | mortality at 2500 ppm [6] | mortality at 300 ppm [7] | mortality at 300 ppm [8] | mortality at 300 ppm [9] | mortality at 1 ppm [10] | mortality at 300 ppm [11] | mortality at 100 ppm [12] | mortality at 100 ppm [13]

From patent US10226045B2, “Azoline compounds” (priority 2014, dated 2019)
